The series can be described thus: Release of albuterol from resinate in various vehicles (membrane-bottomed insert over wells of aqueous solution, simulating topical application to skin). The class given is physicochemical. The following applies: room temperature, sampled 0.5, 1, 2 and 4 hours. The procedure: Albuterol was detected by HPLC on a Waters “Resolve” 5 micron spherical C18 resin column, with a mobile phase of 70% buffer and 30% methanol. Buffer was 4.4 g 1-heptane sulfonic acid in 100 g DI water, adjusted to pH 3.2±0.1 with glacial acetic acid. Albuterol extraction solvent was 10% v/v 0.5 M Na Acetate in ethanol. A stock solution of 0.5 mg albuterol/ml extraction buffer was diluted with 25 volumes of “diluent” (30:70 methanol:DI water, v:v) at the time of use. Samples were extracted to determine albuterol content by transferring 200 mg albuterol resin to a 250 ml flask, using extraction solvent; bringing the volume to about 220 ml of extraction solvent; shaking overnight at room temperature; adding extraction solvent to 250 ml; filtering an aliquot; and diluting filtered solution with 24 volumes of diluent. This solution was analyzed by HPLC, and the amount was determined by comparison with a chromatogram of the standard.
A system was developed to simulate the effects of topical application of a resin-bound drug in a vehicle to skin. […]
The experimental design allowed the pores of the membrane to fill with the aqueous solution. […] Wells were sampled at various times and the fluid was analyzed for albuterol. […]
7.5 g phosphate buffer (pH 6.8; 0.05 M) was added to each well. […] The inserts were removed, and the fluid in the wells (12 in all) was analyzed for albuterol by HPLC. […]

With `CC(C)(C)NCC(O)c1ccc(O)c(CO)c1` (centres unmarked) [albuterol, Albuterol], the Release of albuterol entry is, setting by setting: (albuterol resinate directly in ionic aqueous solution (phosphate buffer pH 6.8, 0.05 M), no vehicle, compared with NINA vehicles) “fastest”; (albuterol resinate in hydrophobic castor oil/colloidal silica (2.5%) vehicle without surfactant, phosphate buffer pH 6.8 in well) “not detectable”.

Source of the values: patent publication US20070036843A1, “Non-ionic non-aqueous vehicles for topical and oral administration of carrier-complexed active agents” (Collegium Pharmaceutical, Inc., priority 2005, published 2007).
